Laboratory results published in patent publication US20240335432A1, “THERAPEUTIC COMPOUND FOR NEURONAL CEROID LIPOFUSCINOSIS” (JCR PHARMACEUTICALS CO., LTD., priority 2021, published 2024).

What was measured:
[1] = test system: CLN2 cells; test: Observation of autofluorescent material (lipofuscin) in CLN2 patient-derived cells by fluorescence microscopy; format: cell-based, human; settings: CLN2 cells of 7 donors, 0.1, 1, 10 μM soraprazan, particularly at 10 μM, 10 days; FIGS. 1-8
Experimental: (§1) Ceroid lipofuscinosis type 2 patient-derived fibroblasts (CLN2 cells, 7 donors: GM09668, GM09669, GM09404, GM10570, GM10672, GM16485, GM16486, Coriell Institute) and normal human dermal fibroblasts (NHDF cells, Cat.No.C-12300, PromoCell GmbH) were cultured in MEM (10370088, Gibco) containing 15% FBS (HyClone) and 1×GlutaMAX™ I (Gibco) (hereafter referred to as MEM). Each cell was diluted to 0.5×10^5 cells/mL with MEM and 15 mL of each cell suspension was seeded in T75 flask (3123-075, IWAKI Inc.). Cells were cultured under 37° C., 5% CO2 conditions.
(§2) Soraprazan (Symeres) was dissolved in Dimethyl sulfoxide (DMSO) to prepare soraprazan stock solution with concentrations of 1, 10, and 100 mM. Each soraprazan stock solution was diluted 1/100 concentration with MEM to prepare media with final concentrations of 0.1, 1, and 10 μM of soraprazan (0.0367, 0.367, and 3.67 μg/mL, respectively). In addition, DMSO was diluted to 1/100 concentration with MEM, which was used as a negative control (0 μM soraprazan). Hereinafter the prepared media herein were referred to as soraprazan-containing media collectively.
Each of the CLN2 cells and the NHDF cells cultured in Example 2-1 was washed twice with Dulbecco's Phosphate-Buffered Saline (DPBS, Gibco) and detached from the flask using 1 mL of 0.25% Trypsin-EDTA (Gibco). […]

[2] = test system: CLN2 cells (GM09668, GM09669, GM10570); test: Quantification of autofluorescence as % Fluorescent Area by image analysis (HALO); format: cell-based, human; settings: for % Fluorescent Area: 10 days culture
Experimental: as §1, §2
Each of the CLN2 cells and the NHDF cells cultured in Example 2-1 was washed twice with Dulbecco's Phosphate-Buffered Saline (DPBS, Gibco) and detached from the flask using 1 mL of 0.25% Trypsin-EDTA (Gibco). After 10 mL of MEM was added, each cell was collected in a 15 mL tube and centrifuged at room temperature at 1000 rpm for 5 minutes, and the supernatant was removed. Then, each cell was suspended at cell density of 2×10^5 cells/mL in one of soraprazan-containing media (0, 0.1, 1, and 10 μM). Then the cell suspension was dispensed in 96-well plates (655956, Gliner) with 0.4×10^5 cells per well (200 μL per well). Cells were cultured at 37° C., in the presence of 5% CO2 for 10 days. During the culture, the medium in each well was exchanged to new corresponding soraprazan-containing medium at 3, 6, and 9 days after seeding.
The observation of autofluorescence was performed after changing the medium to FluoroBrite DMEM (A1896701, Gibco) under GFP detection conditions (BZX filter GFP, excitation wavelength:470/40 nm, absorption wavelength:525/50 nm, dichroic mirror: 495 nm).
To quantify the fluorescence intensity of autofluorescence, the same tests as in Examples 2-1 to 2-4 were performed on 3 types of CLN2 cells (GM09668, GM09669, GM10570) using soraprazan-containing medium, which contained 0, 1, and 10 μM of soraprazan, respectively. It was confirmed again that the fluorescent intensity was reduced in cells cultured in soraprazan-containing medium particularly at a concentration of 10 μM. Then, the ratio of the area where fluorescent was detected in the image (fluorescent area) to the total area of the image occupied by the cells (% Fluorescent Area) was calculated using the image analysis software HALO® (v3.2.1851.354, Indica Labs). As the analysis algorithms, Indica Labs-Area Quantification FL v2 1.6 was used. Herein the area where fluorescent was detected, irrespective of the fluorescent intensity, was defined as fluorescent area, which corresponds the area where a certain amount of lipofuscin existed.

[3] = test system: PPT1 knockout (KO) HEK293T cells or PPT1 KO CHO cells; test: Lipofuscin fluorescence emission measurement in pathological model cells; format: cell-based; settings: final soraprazan concentrations 100 μM-10 nM, versus 100% DMSO added
Experimental: Using mammalian cells in which a causative gene of neuronal ceroid lipofuscinosis has been knocked out as pathological model cells, a test can be performed in which an effect of removing lipofuscin accumulated in the cells by soraprazan is evaluated. For example, using PPT1 knockout (KO) HEK293T cells or PPT1 KO CHO cells, which are pathological model cells of neuronal ceroid lipofuscinosis type 1 (CLN1), a test can be performed in which an effect of removing lipofuscin accumulated in the cells by soraprazan is evaluated. Acquisition of a PPT1 KO cell line can be achieved using a conventionally known method.
Soraprazan is dissolved in dimethyl sulfoxide (DMSO) to a concentration of 10 mM. […]
Relative amounts of lipofuscin accumulated in cells can be measured by observing green autofluorescence emitted from the cells using a fluorescence microscope as described below. […] Then, under a fluorescence microscope, for example, excitation light with wavelength of 485 nm is irradiated to the cells and strength of emitted light from the cells with wavelength of 521 nm is measured. As a fluorescence microscope, for example, EVOS FLoid Imaging System (Thermo Fisher Scientific) can be used, and in this case, wavelengths of excitation light and observation light can be respectively set to 482 nm and 532 nm. […]

[4] = test system: TPP1 knockout (KO) mice; test: Administration test using pathological model animals, fluorescence intensities of tissues; format: in vivo, mouse; settings: oral or intravenous soraprazan versus negative control group
Experimental: A test can be performed in which an effect of soraprazan on removing lipofuscin accumulated in animal tissues by soraprazan is evaluated using mammals in which a causative gene of neuronal ceroid lipofuscinosis has been knocked out as pathological model animals. For example, a test can be performed in which an effect of soraprazan on removing lipofuscin accumulated in mouse tissues by soraprazan is evaluated using TPP1 knockout (KO) mice, which are neuronal ceroid lipofuscinosis type 2 (CLN2) pathological model cells. Generation of the TPP1 KO mice can be performed using a conventionally known method. […]
After a certain time period, for example 0.25, 0.5, 1, 2, 4, 6, 8, or 24 hours after the last administration of a chronic treatment between one week and 12 months, all TPP1 KO mice are anesthetized with isoflurane and perfused with saline from the left ventricle for 4-5 minutes for blood removal. After that, tissues (brain, heart, lungs, liver, spleen, kidneys, quadriceps, thymus, thoracic vertebrae, femur) and peripheral blood, of which fluorescence intensities are to be measured, are collected, and are stored in physiological saline to prevent drying. Fluorescence intensity measurement of lipofuscin is performed using an appropriate fluorescence intensity measuring instrument. […]

## COCCO[C@@H]1c2ccn3c(C)c(C)nc3c2N[C@H](c2ccccc2)[C@H]1O [Soraprazan, soraprazan]
[1]
  fluorescent intensity (autofluorescence, lipofuscin accumulation): markedly reduced
[2]; 3 types of CLN2 cells, 1 and 10 μM soraprazan, particularly at 10 μM, FIGS. 9-11
  fluorescent intensity (autofluorescence): reduced
[2]; GM09668 cells, 1 μM soraprazan
  % Fluorescent Area: 0.944%
[2]; GM09668 cells, 10 μM soraprazan
  % Fluorescent Area: 2.07%
[2]; GM09669 cells, 1 μM soraprazan
  % Fluorescent Area: 10.9%
[2]; GM09669 cells, 10 μM soraprazan
  % Fluorescent Area: 2.34%
[2]; GM10570 cells, 1 μM soraprazan
  % Fluorescent Area: 12.3%
[2]; GM10570 cells, 10 μM soraprazan
  % Fluorescent Area: 0.766%
[3]
  amount of lipofuscin accumulated in the cells (fluorescence intensity): decreases according to the concentration of soraprazan
[4]
  amount of lipofuscin accumulated in each of the tissues (fluorescence intensity): reduces the amount of lipofuscin
